Data: patent US11197908B2, “Peptoids and methods for attenuating inflammatory response” (THE BOARD OF TRUSTEES OF THE UNIVERSITY OF ARKANSAS, priority 2018, dated 2021)
Where a SMILES comes first, the peptide text is derived from it. [ ]: non-standard residue; d: D form. N(1S-Me-propyl)Gly = CC[C@H](C)NCC(=O)O; Nspe = C[C@H](NCC(=O)O)c1ccccc1; Nlys = NCCCCNCC(=O)O

Key:
Type in all cases: cell-based, human
RAGE = test: Aβ1-42 oligomer induced RAGE expression in THP1 macrophages (confocal imaging); conditions: 3 days
Procedure: Aβ1-42 oligomers were prepared at 15 μM through the addition of 12 mM phosphate containing […] to DMSO-solubilized AP. After 15-minute incubation, oligomerization was halted and used to immediately prepare treatments of 10 nM Aβ1-42 oligomers alone (positive control) or in the presence of the peptoid at concentrations ranging from 1 μM to 25 μM. Treatments were applied to THP1 macrophages for 3 days prior to cell fixation and staining. Treatment with 10 nM Aβ1-42 oligomers alone served as a positive control, while treatment with an equivalent volume of buffer diluted into media served as the vehicle. Treatment with 15 μM JPT1a ensured that JPT1a alone had no effect. Cells were fixed and stained for RAGE, phalloidin (cytoplasmic marker), and DAPI (nuclear marker). […] All multi-channel images were converted to TIFF file format via ImageJ64 software for quantitative image analysis using a custom subroutine written in MATLAB™ software to obtain the average RAGE expression per volume of cells.
Treatment with an equivalent volume of buffer diluted into media served as the vehicle. Treatment with 25 μM JPT1a in the presence of vehicle assessed the effect of the peptoid alone (black). Images were analyzed via custom MATLAB™ subroutine to determine the average quantity of RAGE present within a given volume of cells. […]

IL-6 = IL-6 in supernatant of THP-1 macrophages co-incubated with peptoid and LPS (ELISA); conditions: 3 days, vs LPS alone
Procedure: (§1) THP-1 monocytes were differentiated into macrophages through exposure to phorbol 12-myristate 13-acetate (PMA) for three days prior to experimentation 10. […] Upon differentiation, these cells were then incubated (3 days) with media containing JPT1a (50, 10, or 2 μM) alone or JPT1a (50, 10, or 2 μM) in the presence of low-dose (2 ng/mL) lipopolysaccharide (LPS) as a chronic pro-inflammatory stimulus 11. Treatment with 2 ng/mL LPS alone served as a positive control, while treatment with an equivalent volume of buffer diluted into media served as the vehicle. Cellular supernatant was harvested on day 3 12; these samples were immediately centrifuged at 1200 rpm for 10 min at 25° C. to remove any cells or debris. The top 80% of this volume was subsequently removed and stored at −80° C. for later assessment of cytokines via ELISA. Cells were fixed and stained for RAGE, phalloidin (cytoplasmic marker), and DAPI (nuclear marker) 13. […] All multi-channel images were converted to TIFF file format via ImageJ64 software for quantitative image analysis using a custom subroutine written in Matlab™ software to obtain the average RAGE expression per volume of cells, and the data generated was assessed for statistical significance using GraphPad Prism 7.0 software 15.
(§2) As shown in FIGS. 2B-2D, THP-1 macrophages were treated with JPT1a alone (white) or in the presence of a chronic low-dose (2 ng/mL) of LPS (grey), for 3 days prior to supernatant harvest and storage. Examination of the supernatant via ELISA determined the concentrations of (FIG. 2B) IL-1β, (FIG. 2C) IL-6, and (FIG. 2D) IL-8. […]
As shown in FIGS. 5B-5D, THP-1 macrophages were treated with JPT1 alone (white) or in the presence of a chronic low-dose (2 ng/mL) of LPS (grey), for 3 days prior to supernatant harvest and storage. Examination of the supernatant via ELISA determined the concentrations of (FIG. 5B) IL-1β, (FIG. 5C) IL-6, and (FIG. 5D) IL-8. […]

IL-1β [1] = test: IL-1β in supernatant of THP-1 macrophages co-incubated with peptoid and LPS (ELISA); conditions: peptoid 50 μM with 2 ng/mL LPS, 3 days; vs LPS alone
Procedure: as §1, with “debris.” for “debris. The top 80% of this volume was subsequently removed and stored at −80° C. for later assessment of cytokines via ELISA. Cells were fixed and stained for RAGE, phalloidin (cytoplasmic marker), and DAPI (nuclear marker) 13.”
as §2

IL-1β [2] = test: IL-1β expression in previously LPS-stimulated THP1 macrophages (ELISA); conditions: 25, 5, 1 μM added after 48 h of 2 ng/mL LPS, additional 24 h
Procedure: THP-1 monocytes were differentiated as described above 20. Upon differentiation, these cells were then incubated (48 h) with media containing low-dose (2 ng/mL) LPS as a chronic pro-inflammatory stimulus 21. Following incubation, JPT1a or JPT1 was added for final concentrations of 25, 5, and 1 μM 22, and cells were incubated an additional 24 h. Treatment with 2 ng/mL LPS alone served as a positive control, while treatment with an equivalent volume of buffer diluted into media served as the vehicle. Media was collected for later assessment of cytokines via ELISA as described above 23. Cells were fixed and stained for RAGE, phalloidin (cytoplasmic marker), and DAPI (nuclear marker) 24. Each channel was imaged with a Zeiss LSM 510 META Confocal Scanning Laser Microscope using a plan-neofluar 40×/1.3 oil DIC immersion objective; three of these multi-channel images were obtained from each slide in each experiment. 25 All multi-channel images were converted to TIFF file format via ImageJ64 software for quantitative image analysis using a custom subroutine written in Matlab™ software to obtain the average RAGE expression per volume of cells, and the data generated was assessed for statistical significance using GraphPad Prism 7.0 software 26.
As shown in FIGS. 4B-4D, THP1 macrophages were treated with low-dose LPS at 2 ng/mL. […]

With `CC[C@H](C)N(CC(=O)N(CC(=O)N(CC(=O)N(CC(=O)N(CC(=O)N(CC(=O)N(CC(N)=O)[C@@H](C)c1ccccc1)[C@@H](C)c1ccccc1)[C@@H](C)CC)[C@@H](C)c1ccccc1)[C@@H](C)c1ccccc1)[C@@H](C)CC)C(=O)CNCCCCN` [JPT1a] (H-[Nlys][N(1S-Me-propyl)Gly][N(1S-Me-propyl)Gly][Nspe][Nspe][N(1S-Me-propyl)Gly][Nspe][Nspe]-NH2) the “expression of RAGE, JPT1a alone” value (RAGE; 25 μM JPT1a in the presence of vehicle) was “does not provoke significant response or upregulation”, the “Aβ1-42 oligomer induced RAGE expression” value (RAGE; JPT1a 25, 10, 5 or 1 μM with 10 nM Aβ1-42 oligomers, fraction of positive control) was “dose-dependent reduction” and the “levels of LPS-induced IL-6” value (IL-6; peptoid 10 μM with 2 ng/mL LPS) was “significantly reduces”. For the same compound, the “LPS-induced production of IL-6” value (IL-6; peptoid 50 μM with 2 ng/mL LPS) was “significantly attenuates”, the “LPS-induced production of IL-1β” value (IL-1β [1]) was “significantly attenuates” and the “IL-1β production of previously stimulated macrophages” value (IL-1β [2]) was “does not affect cytokine production”.
